# According to patent publication US10745356B2, “Compositions and methods for treating tuberculosis” (priority 2015, dated 2020):
# System: M. tuberculosis strains
# Experiment: Minimum Inhibitory Concentration (MIC) against M. tuberculosis strains, resazurin microtiter plate assay
# Assay type: cell-based, Mycobacterium tuberculosis
# Settings: Mycobacterium tuberculosis
row,Structure (SMILES),MIC90 [µM]
1,Cc1cc2nc(C(=O)NCCF)cc(-c3ccccc3Cl)c2c(C)c1-c1ccncc1 [Compound 31],1.25
2,Cc1cc2nccc(-c3ccccc3)c2c(C)c1-c1ccc(CN2CCOCC2)cc1 [Compound 47],0.45
3,Cc1cc2nccc(-c3ccccc3Cl)c2c(C)c1-c1ccc(CN2CCOCC2)cc1 [Compound 48],0.3
4,Cc1cc2nccc(-c3cccc(Cl)c3)c2c(C)c1-c1ccc(CN2CCOCC2)cc1 [Compound 49],0.6
5,Cc1cc2nccc(-c3ccc(Cl)cc3)c2c(C)c1-c1ccc(CN2CCOCC2)cc1 [Compound 50],80
6,COc1cccc(-c2ccnc3cc(C)c(-c4ccc(CN5CCOCC5)cc4)c(C)c23)c1OC [Compound 51],> 40
7,Cc1cc2nccc(-c3ccccc3C(=O)O)c2c(C)c1-c1ccc(CN2CCOCC2)cc1 [Compound 57],40
8,Cc1cccc(C)c1-c1ccnc2cc(C)c(-c3ccc(CN4CCOCC4)cc3)c(C)c12 [Compound 58],5
9,Cc1cc2nccc(-c3cccnc3C#N)c2c(C)c1-c1ccc(CN2CCOCC2)cc1 [Compound 62],7.5
10,Cc1cc2nccc(-c3ccnn3C)c2c(C)c1-c1ccc(CN2CCOCC2)cc1 [Compound 63],2.2
11,CNC(=O)c1cc(-c2cccc(Cl)c2)c2c(C)c(-c3ccncc3)c(C)cc2n1 [Compound 66],2.5
12,CNC(=O)c1cc(-c2ccc(Cl)cc2)c2c(C)c(-c3ccncc3)c(C)cc2n1 [Compound 67],40
13,CNC(=O)c1cc(N2CCCCC2)c2c(C)c(-c3ccncc3)c(C)cc2n1 [Compound 69],5

# Same assay, conditions: Mycobacterium tuberculosis, Table 1, C2 SAR with chlorophenyl; Middlebrook 7H9, 37° C. six days, resazurin fluorescence after 48 hours; read-out: MIC90
row,Structure (SMILES),MIC90 [µM]
1,Cc1cc2nccc(-c3ccccc3Cl)c2c(C)c1-c1ccncc1 [Compound 1],5
2,Cc1cc2nc(CO)cc(-c3ccccc3Cl)c2c(C)c1-c1ccncc1 [Compound 3],3.75
3,Cc1cc2nc(C(C)(C)O)cc(-c3ccccc3Cl)c2c(C)c1-c1ccncc1 [Compound 4],> 40
4,Cc1cc2nc(CN(C)C)cc(-c3ccccc3Cl)c2c(C)c1-c1ccncc1 [Compound 5],10
5,Cc1cc2nc(CNCCO)cc(-c3ccccc3Cl)c2c(C)c1-c1ccncc1 [Compound 6],5
6,Cc1cc2nc(N)cc(-c3ccccc3Cl)c2c(C)c1-c1ccncc1 [Compound 7],10
7,CNc1cc(-c2ccccc2Cl)c2c(C)c(-c3ccncc3)c(C)cc2n1 [Compound 8],6
8,Cc1cc2nc(NCCO)cc(-c3ccccc3Cl)c2c(C)c1-c1ccncc1 [Compound 9],3
9,Cc1cc2nc(CCC(=O)N(C)C)cc(-c3ccccc3Cl)c2c(C)c1-c1ccncc1 [Compound 10],20
10,CNS(=O)(=O)c1cc(-c2ccccc2Cl)c2c(C)c(-c3ccncc3)c(C)cc2n1 [Compound 11],10
11,Cc1cc2nc(C(N)=O)cc(-c3ccccc3Cl)c2c(C)c1-c1ccncc1 [Compound 12],1.25
12,CNC(=O)c1cc(-c2ccccc2Cl)c2c(C)c(-c3ccncc3)c(C)cc2n1 [Compound 13],0.8
13,Cc1cc2nc(C(=O)NC3CC3)cc(-c3ccccc3Cl)c2c(C)c1-c1ccncc1 [Compound 14],1.9
14,Cc1cc2nc(C(=O)NCCO)cc(-c3ccccc3Cl)c2c(C)c1-c1ccncc1 [Compound 15],0.3
15,Cc1cc2nc(C(=O)NCCN(C)C)cc(-c3ccccc3Cl)c2c(C)c1-c1ccncc1 [Compound 16],0.3
16,Cc1cc2nc(C(=O)NO)cc(-c3ccccc3Cl)c2c(C)c1-c1ccncc1 [Compound 17],10

row,Structure (SMILES),MIC90 [µM]
1,Cc1cc2nc(C(=O)N3CCCC3)cc(-c3ccccc3Cl)c2c(C)c1-c1ccncc1 [Compound 19],2.5
2,Cc1cc2nc(C(=O)NS(=O)(=O)C3CC3)cc(-c3ccccc3Cl)c2c(C)c1-c1ccncc1 [Compound 20],2.5
3,Cc1cc2nc(C(=O)NCC3CCCS(=O)(=O)C3)cc(-c3ccccc3Cl)c2c(C)c1-c1ccncc1 (centres unmarked) [Compound 21],0.8
4,Cc1cc2nc(C(=O)NCC(O)CO)cc(-c3ccccc3Cl)c2c(C)c1-c1ccncc1 (centres unmarked) [Compound 22],0.4
5,Cc1cc2nc(C(=O)N[C@H]3CCCC[C@@H]3O)cc(-c3ccccc3Cl)c2c(C)c1-c1ccncc1 [Compound 23],1.25
6,Cc1cc2nc(C(=O)N[C@H]3CCC[C@@H]3O)cc(-c3ccccc3Cl)c2c(C)c1-c1ccncc1 [Compound 24],0.6
7,Cc1cc2nc(C(=O)NC3CCN(C)C3)cc(-c3ccccc3Cl)c2c(C)c1-c1ccncc1 (centres unmarked) [Compound 25],1.25
8,Cc1cc2nc(C(=O)NC(C)CCO)cc(-c3ccccc3Cl)c2c(C)c1-c1ccncc1 (centres unmarked) [Compound 26],1.25
9,Cc1cc2nc(C(=O)NCC(N)=O)cc(-c3ccccc3Cl)c2c(C)c1-c1ccncc1 [Compound 27],0.8
10,Cc1cc2nc(C(=O)NCC(C)(C)C(=O)O)cc(-c3ccccc3Cl)c2c(C)c1-c1ccncc1 [Compound 28],80
11,Cc1cc2nc(C(=O)N(C)C)cc(-c3ccccc3Cl)c2c(C)c1-c1ccncc1 [Compound 29],20
12,Cc1cc2nc(C(=O)N3CCNCC3)cc(-c3ccccc3Cl)c2c(C)c1-c1ccncc1 [Compound 30],10
13,Cc1cc2nc(C(=O)N3CCOCC3)cc(-c3ccccc3Cl)c2c(C)c1-c1ccncc1 [Compound 32],15
14,Cc1cc2nc(C(=O)NC3CCN(C)CC3)cc(-c3ccccc3Cl)c2c(C)c1-c1ccncc1 [Compound 33],0.8
15,Cc1cc2nc(C(=O)NC(CO)CO)cc(-c3ccccc3Cl)c2c(C)c1-c1ccncc1 [Compound 34],1.9
16,Cc1cc2nc(C(=O)NCC(C)(C)CO)cc(-c3ccccc3Cl)c2c(C)c1-c1ccncc1 [Compound 35],1.6

# Same assay, conditions: Mycobacterium tuberculosis, Table 1A, C2 SAR with fluorophenyl; Middlebrook 7H9, 37° C. six days, resazurin fluorescence after 48 hours; read-out: MIC90
row,Structure (SMILES),MIC90 [µM]
1,Cc1cc2nccc(-c3ccccc3F)c2c(C)c1-c1ccncc1 [Compound 36],5
2,CNC(=O)c1cc(-c2ccccc2F)c2c(C)c(-c3ccncc3)c(C)cc2n1 [Compound 37],1.25
3,Cc1cc2nc(C(=O)NCCO)cc(-c3ccccc3F)c2c(C)c1-c1ccncc1 [Compound 38],1.6
4,Cc1cc2nc(C(=O)N[C@H](C)CO)cc(-c3ccccc3F)c2c(C)c1-c1ccncc1 [Compound 39],0.6
5,Cc1cc2nc(C(=O)N[C@@H](C)CO)cc(-c3ccccc3F)c2c(C)c1-c1ccncc1 [Compound 40],0.3
6,Cc1cc2nc(C(=O)N[C@H](C)CCO)cc(-c3ccccc3F)c2c(C)c1-c1ccncc1 [Compound 41],0.16
7,Cc1cc2nc(C(=O)N[C@@H](C)CCO)cc(-c3ccccc3F)c2c(C)c1-c1ccncc1 [Compound 42],0.16
8,Cc1cc2nc(C(=O)NC[C@H](O)CO)cc(-c3ccccc3F)c2c(C)c1-c1ccncc1 [Compound 43],0.8
9,Cc1cc2nc(C(=O)NC[C@@H](O)CO)cc(-c3ccccc3F)c2c(C)c1-c1ccncc1 [Compound 44],0.6
10,Cc1cc2nc(C(=O)NC3CCN(C)C3)cc(-c3ccccc3F)c2c(C)c1-c1ccncc1 (centres unmarked) [Compound 45],1.25
11,Cc1cc2nc(C(=O)NC3CCN(C)CC3)cc(-c3ccccc3F)c2c(C)c1-c1ccncc1 [Compound 46],1.25

# Same assay, conditions: Mycobacterium tuberculosis, Table 2, C4 SAR; Middlebrook 7H9, 37° C. six days, resazurin fluorescence after 48 hours; read-out: MIC90
row,Structure (SMILES),MIC90 [µM]
1,Cc1cc2nccc(-c3ccccc3C#N)c2c(C)c1-c1ccc(CN2CCOCC2)cc1 [Compound 52],2.5
2,COc1cccc(-c2ccnc3cc(C)c(-c4ccc(CN5CCOCC5)cc4)c(C)c23)c1Cl [Compound 53],10
3,CCN(CC)Cc1ccccc1-c1ccnc2cc(C)c(-c3ccc(CN4CCOCC4)cc3)c(C)c12 [Compound 54],2.5
4,Cc1cc2nccc(-c3ccccc3CO)c2c(C)c1-c1ccc(CN2CCOCC2)cc1 [Compound 55],2.5
5,Cc1cc2nccc(-c3ccccc3C(N)=O)c2c(C)c1-c1ccc(CN2CCOCC2)cc1 [Compound 56],20
6,COc1ccncc1-c1ccnc2cc(C)c(-c3ccc(CN4CCOCC4)cc3)c(C)c12 [Compound 59],2.5
7,COc1ncccc1-c1ccnc2cc(C)c(-c3ccc(CN4CCOCC4)cc3)c(C)c12 [Compound 60],2.5
8,Cc1cc(-c2ccnc3cc(C)c(-c4ccc(CN5CCOCC5)cc4)c(C)c23)n(C)n1 [Compound 61],> 40
9,Cc1cc2nccc(-c3cncnc3)c2c(C)c1-c1ccc(CN2CCOCC2)cc1 [Compound 64],2.5
10,Cc1cc2nccc(-c3cncnc3C)c2c(C)c1-c1ccc(CN2CCOCC2)cc1 [Compound 65],5

# Same assay, conditions: Mycobacterium tuberculosis, Table 3, C4 SAR; Middlebrook 7H9, 37° C. six days, resazurin fluorescence after 48 hours; read-out: MIC90
row,Structure (SMILES),MIC90 [µM]
1,CNC(=O)c1cc(-c2ccccc2Cl)c2c(C)c(-c3ccncc3)c(C)cc2n1 [Compound 13],0.8
2,CNC(=O)c1cc(-c2ccccc2F)c2c(C)c(-c3ccncc3)c(C)cc2n1 [Compound 37],0.6
3,CNC(=O)c1cc(-c2cncnc2)c2c(C)c(-c3ccncc3)c(C)cc2n1 [Compound 68],10
4,CNC(=O)c1cc(N2CCOCC2)c2c(C)c(-c3ccncc3)c(C)cc2n1 [Compound 70],20
5,CNC(=O)c1cc(N2CCCC2)c2c(C)c(-c3ccncc3)c(C)cc2n1 [Compound 71],> 50

# Same assay, conditions: Mycobacterium tuberculosis, Table 4, C6 SAR; Middlebrook 7H9, 37° C. six days, resazurin fluorescence after 48 hours; read-out: MIC90
row,Structure (SMILES),MIC90 [µM]
1,Cc1cc2nccc(-c3ccccc3)c2c(C)c1-c1ccncc1 [Compound 72],5
2,Cc1cc2nccc(-c3ccccc3)c2c(C)c1-c1cncnc1 [Compound 73],40
3,Cc1cc2nccc(-c3ccccc3)c2c(C)c1-c1cnco1 [Compound 74],31

# Same assay, conditions: Mycobacterium tuberculosis, Table 4A, C6 SAR with amide; Middlebrook 7H9, 37° C. six days, resazurin fluorescence after 48 hours; read-out: MIC90
row,Structure (SMILES),MIC90 [µM]
1,CNC(=O)c1cc(-c2ccccc2F)c2c(C)c(-c3ccncc3)c(C)cc2n1 [Compound 37],1.25

# Same assay, conditions: Mycobacterium tuberculosis, Table 6; Middlebrook 7H9, 37° C. six days, resazurin fluorescence after 48 hours; read-out: MIC90
row,Structure (SMILES),MIC90 [µM]
1,"Cc1cc2nc(C(=O)N[C@@H]3CNC[C@@H]3F)cc(-c3ccnn3C)c2c(C)c1-c1ccncc1 (racemic) [Compound 105, N-[(3R,4S and 3S,4R)-4-fluoropyrrolidin-3-yl]-5,7-dimethyl-4-(2-methylpyrazol-3-yl)-6-(4-pyridyl)quinoline-2-carboxamide]",3

# Same assay, conditions: Table 4, C6 SAR; Middlebrook 7H9, 37° C. six days, resazurin fluorescence after 48 hours; read-out: MIC90
row,Structure (SMILES),MIC90 [µM]
1,Cc1cc2nccc(-c3ccccc3)c2c(C)c1-c1ccc(CN2CCOCC2)cc1 [Compound 47],0.45
